In ChEMBL document CHEMBL1136459, “New antibacterial tetrahydro-4(2H)-thiopyran and thiomorpholine S-oxide and S,S-dioxide phenyloxazolidinones” (Bioorg Med Chem Lett, 2003):
In brackets after ≈: the same amount, converted by molar mass.

Key:
Streptococcus pneumoniae [1] = experiment: In vitro antibacterial activity against Streptococcus pneumoniae strains ATCC 6305 and 31573 (SPN); range is 0.5-1
Staphylococcus aureus [2] = experiment: In vitro antibacterial activity against Staphylococcus aureus strains UC12673, UC9213, ATCC 29213, and UC9271 (SA); range is 1-2; format: functional
Haemophilus influenzae [3] = experiment: In vitro antibacterial activity against Haemophilia influenzae strains ATCC 30063 and ATCC 31517; format: functional
Enterococcus faecium = experiment: In vitro antibacterial activity against vancomycin-resistant Enterococcus faecium UC12712 (VRE).
[4] = system: Staphylococcus epidermidis; experiment: In vitro antibacterial activity against Staphylococcus epidermidis strains UC12084, 30031, and CDC-CNS90 (SE); range is 0.5-1; format: functional
Staphylococcus aureus [5] = experiment: In vitro antibacterial activity against linezolid-resistant Staphylococcus aureus ATCC 29213 (LRSA).; format: functional
Moraxella catarrhalis [6] = experiment: In vitro antibacterial activity against Moraxella catarrhalis strains 30607 and 30603 (MC).; format: functional
Streptococcus pneumoniae [7] = experiment: In vitro antibacterial activity against Streptococcus pneumoniae strains ATCC 6305 and 31573 (SPN); range is 1-2
Haemophilus influenzae [8] = experiment: In vitro antibacterial activity against Haemophilia influenzae strains 30063 and ATCC 31517 (HI); range is 4-16; format: functional
[9] = system: Staphylococcus epidermidis; experiment: In vitro antibacterial activity against Staphylococcus epidermidis strains UC12084, 30031, and CDC-CNS90 (SE); range is 0.13-2; format: functional
Staphylococcus aureus [10] = experiment: In vitro antibacterial activity against Staphylococcus aureus strains UC12673, UC9213, ATCC 29213, and UC9271 (SA); format: functional
Moraxella catarrhalis [11] = experiment: In vitro antibacterial activity against Moraxella catarrhalis strains 30607 and 30603 (MC); range is 8-16; format: functional
[12] = In vivo Oral bioavailability (F)was determined after peroral administration of compound (158.5+/-2 mg/kg) in male Sprague-Dawley rat; format: ADME, organism-based
Rattus norvegicus [13] = experiment: In vivo Cmax was determined after intravenous administration of compound (9.13+/-0.85 mg/kg) in male Sprague-Dawley rat; format: ADME, organism-based; design: route intravenous
[14] = In vivo Oral bioavailability (F)was determined after peroral administration of compound (19.01+/-0.31 mg/kg) in male Sprague-Dawley rat; format: ADME, organism-based
[15] = In vivo Cmax was determined after peroral administration of compound (158.5+/-2 mg/kg) in male Sprague-Dawley rat; format: ADME, organism-based; design: route oral; settings: po
Haemophilus influenzae [16] = experiment: In vitro antibacterial activity against Haemophilia influenzae strains 30063 and ATCC 31517 (HI); range is 4-8; format: functional
Rattus norvegicus [17] = experiment: In vivo Cmax was determined after peroral administration of compound (76.4+/-2.6 mg/kg) in male Sprague-Dawley rat; format: ADME, organism-based; design: route oral; settings: po
Rattus norvegicus [18] = experiment: In vivo Area under curve (AUC) was determined after oral administration of compound (158.5+/-2 mg/kg) in male Sprague-Dawley rat
[19] = system: Staphylococcus epidermidis; experiment: In vitro antibacterial activity against Staphylococcus epidermidis strains UC12084, 30031, and CDC-CNS90 (SE); range is 1-24; format: functional
Rattus norvegicus [20] = experiment: In vivo Tmax was determined after peroral administration of compound (76.4+/-2.6 mg/kg) in male Sprague-Dawley rat; format: ADME, organism-based; settings: po
Rattus norvegicus [21] = experiment: In vivo t1/2 was determined after intravenous administration of compound (9.13+/-0.85 mg/kg) in male Sprague-Dawley rat; format: ADME, organism-based
[22] = In vivo Tmax was determined after peroral administration of compound (158.5+/-2 mg/kg) in male Sprague-Dawley rat; format: ADME, organism-based; settings: po
[23] = In vivo Oral bioavailability (F)was determined after peroral administration of compound (76.4+/-2.6 mg/kg) in male Sprague-Dawley rat; format: ADME, organism-based
Rattus norvegicus [24] = experiment: In vivo Area under curve (AUC) was determined after intravenous administration of compound (9.13+/-0.85 mg/kg) in male Sprague-Dawley rat; format: ADME, organism-based
Rattus norvegicus [25] = experiment: In vivo Tmax was determined after peroral administration of compound (19.01+/-0.31 mg/kg) in male Sprague-Dawley rat; format: ADME, organism-based; settings: po
Mus musculus = experiment: In vivo Efficacy of compound after peroral administration in mouse; format: functional; settings: po
Rattus norvegicus [26] = experiment: In vivo t1/2 was determined after peroral administration of compound (19.01+/-0.31 mg/kg) in male Sprague-Dawley rat; format: ADME, organism-based; settings: po
Staphylococcus aureus [27] = experiment: In vitro antibacterial activity against Staphylococcus aureus strains UC12673, UC9213, ATCC 29213, and UC9271 (SA); range is 2-4; format: functional
Rattus norvegicus [28] = experiment: In vivo t1/2 was determined after peroral administration of compound (76.4+/-2.6 mg/kg) in male Sprague-Dawley rat; format: ADME, organism-based; settings: po
Moraxella catarrhalis [29] = experiment: In vitro antibacterial activity against Moraxella catarrhalis strains 30607 and 30603 (MC); range is 4-8; format: functional
Rattus norvegicus [30] = experiment: In vivo Cmax was determined after peroral administration of compound (19.01+/-0.31 mg/kg) in male Sprague-Dawley rat; format: ADME, organism-based; design: route oral; settings: po
[31] = In vivo Volume distribution (Vss) was determined after intravenous administration of compound (9.13+/-0.85 mg/kg) in male Sprague-Dawley rat; format: ADME, organism-based; settings: read-out: Vss
[32] = In vivo t1/2 was determined after peroral administration of compound (158.5+/-2 mg/kg) in male Sprague-Dawley rat; format: ADME, organism-based; settings: po
Rattus norvegicus [33] = experiment: In vivo Volume distribution (Vss) was determined after peroral administration of compound (76.4+/-2.6 mg/kg) in male Sprague-Dawley rat; format: ADME, organism-based; settings: po
Rattus norvegicus [34] = experiment: In vivo Volume distribution (Vss) was determined after peroral administration of compound (158.5+/-2 mg/kg) in male Sprague-Dawley rat; format: ADME, organism-based; settings: po
Rattus norvegicus [35] = experiment: In vivo Area under curve (AUC) was determined after peroral administration of compound (19.01+/-0.31 mg/kg) in male Sprague-Dawley rat; format: ADME, organism-based; settings: po
Rattus norvegicus [36] = experiment: In vivo Area under curve (AUC) was determined after peroral administration of compound (76.4+/-2.6 mg/kg) in male Sprague-Dawley rat; format: ADME, organism-based; settings: po
Rattus norvegicus [37] = experiment: In vivo Tmax was determined after intravenous administration of compound (9.13+/-0.85 mg/kg) in male Sprague-Dawley rat; format: ADME, organism-based
Rattus norvegicus [38] = experiment: In vivo Clearance (Cl) was determined after intravenous administration of compound (9.13+/-0.85 mg/kg) in male Sprague-Dawley rat; format: ADME, organism-based
[39] = system: Staphylococcus epidermidis; experiment: In vitro antibacterial activity against Staphylococcus epidermidis strains UC12084, 30031, and CDC-CNS90 (SE); format: functional
Moraxella catarrhalis [40] = experiment: In vitro antibacterial activity against Moraxella catarrhalis strains 30607 and 30603 (MC); range is 32-64; format: functional
Staphylococcus aureus [41] = experiment: In vitro antibacterial activity against Staphylococcus aureus strains UC12673, UC9213, ATCC 29213, and UC9271 (SA); range is 8-32; format: functional
[42] = system: Staphylococcus epidermidis; experiment: In vitro antibacterial activity against Staphylococcus epidermidis strains UC12084, 30031, and CDC-CNS90 (SE); range is 16-32; format: functional
Staphylococcus aureus [43] = experiment: In vitro antibacterial activity against Staphylococcus aureus strains UC12673, UC9213, ATCC 29213, and UC9271 (SA); range is 32-64; format: functional
Streptococcus pneumoniae [44] = experiment: In vitro antibacterial activity against Streptococcus pneumoniae strains ATCC 6305 and 31573 (SPN); range is 8-16

CO/N=C/c1ccc(/C=C/C(=O)NC[C@H]2CN(c3ccc(N4CC[S+]([O-])CC4)c(F)c3)C(=O)O2)cc1
MIC (Streptococcus pneumoniae [1]): 0.5 µg/mL (≈ 0.972 µM)
MIC (Staphylococcus aureus [2]): 1 µg/mL (≈ 1.94 µM)
MIC (Haemophilus influenzae [3]): > 64 µg/mL
MIC (Enterococcus faecium): 2 µg/mL (≈ 3.89 µM)
MIC [4]: 0.5 µg/mL (≈ 0.972 µM)
MIC (Staphylococcus aureus [5]): 64 µg/mL (≈ 124 µM)
MIC (Moraxella catarrhalis [6]): 4 µg/mL (≈ 7.77 µM)

NC(=O)NC[C@H]1CN(c2ccc(C3CCS(=O)(=O)CC3)c(F)c2)C(=O)O1
MIC (Streptococcus pneumoniae [7]): 1 µg/mL (≈ 2.59 µM)
MIC (Enterococcus faecium): 4 µg/mL (≈ 10.4 µM)
MIC (Haemophilus influenzae [8]): > 4 µg/mL
MIC (Staphylococcus aureus [5]): > 64 µg/mL
MIC [9]: 0.13 µg/mL (≈ 0.337 µM)
MIC (Staphylococcus aureus [10]): 16 µg/mL (≈ 41.5 µM)
MIC (Moraxella catarrhalis [11]): > 8 µg/mL

O=C(NC[C@H]1CN(c2ccc(C3CC[S+]([O-])CC3)c(F)c2)C(=O)O1)C(F)F (some centres not stated)
bioavailability [12]: 85.7%
Cmax (Rattus norvegicus [13]): 15600 ng/mL
bioavailability [14]: 77.1%
Cmax [15]: 9070 ng/mL
MIC (Haemophilus influenzae [16]): 4 µg/mL (≈ 9.89 µM)
Cmax (Rattus norvegicus [17]): 8600 ng/mL
AUC (Rattus norvegicus [18]): 60800 ng·h/mL
MIC [19]: 1 µg/mL (≈ 2.47 µM)
MIC (Enterococcus faecium): 2 µg/mL (≈ 4.95 µM)
T max (Rattus norvegicus [20]): 0.5 h
T1/2 (Rattus norvegicus [21]): 2.9 h
Tmax [22]: 0.38 h
bioavailability [23]: 95.1%
AUC (Rattus norvegicus [24]): 4090 ng·h/mL
T max (Rattus norvegicus [25]): 0.38 h
ED50 (Mus musculus): 6.52 mg/kg
T1/2 (Rattus norvegicus [26]): 3.6 h
MIC (Staphylococcus aureus [5]): 16 µg/mL (≈ 39.6 µM)
MIC (Staphylococcus aureus [27]): 2 µg/mL (≈ 4.95 µM)
T1/2 (Rattus norvegicus [28]): 4.25 h
MIC (Moraxella catarrhalis [29]): 4 µg/mL (≈ 9.89 µM)
Cmax (Rattus norvegicus [30]): 3470 ng/mL
Vd [31]: 1.78 L/kg
half-life [32]: 7.93 h
Vss (Rattus norvegicus [33]): 29.84 L/kg
Vss (Rattus norvegicus [34]): 29.84 L/kg
AUC (Rattus norvegicus [35]): 6570 ng·h/mL
AUC (Rattus norvegicus [36]): 32400 ng·h/mL
T max (Rattus norvegicus [37]): 1.98 min
Cl (Rattus norvegicus [38]): 37.25 mL/min/kg

CC(=O)Oc1ccc(C(=O)NC[C@H]2CN(c3ccc(C4CC[S+]([O-])CC4)c(F)c3)C(=O)O2)cc1 (some centres not stated)
MIC (Haemophilus influenzae [3]): 64 µg/mL (≈ 131 µM)
MIC [39]: 4 µg/mL (≈ 8.19 µM)
MIC (Enterococcus faecium): 0.06 µg/mL (≈ 0.123 µM)
MIC (Staphylococcus aureus [5]): 64 µg/mL (≈ 131 µM)
MIC (Moraxella catarrhalis [40]): 32 µg/mL (≈ 65.5 µM)
MIC (Staphylococcus aureus [41]): 8 µg/mL (≈ 16.4 µM)

O=C(NC[C@H]1CN(c2ccc(N3CC[S+]([O-])CC3)c(F)c2)C(=O)O1)c1ccccc1
MIC [42]: 16 µg/mL (≈ 37.1 µM)
MIC (Staphylococcus aureus [43]): 32 µg/mL (≈ 74.2 µM)
MIC (Streptococcus pneumoniae [44]): 8 µg/mL (≈ 18.5 µM)
MIC (Haemophilus influenzae [3]): > 64 µg/mL
MIC (Enterococcus faecium): 32 µg/mL (≈ 74.2 µM)
MIC (Staphylococcus aureus [5]): > 64 µg/mL
MIC (Moraxella catarrhalis [6]): > 64 µg/mL
